{
  "source": "patent US10613078B2",
  "about": "“Assays for measuring cardiotoxicity” (NCARDIA B.V., priority 2015, dated 2020)",
  "system": "human stem-cell derived cardiomyocytes",
  "assay": "Promega ATP assay (CellTiter-Glo luminescent cell viability) on cardiomyocytes",
  "format": "cell-based",
  "excerpt": "Cells were dissociated at day 21 using 10× TrypLE select and replated at 20.000 cells/well in white 96-well plates (Corning 655098) and treated according to the protocol shown in FIG. 1. Alternatively, Pluricyte Cardiomyocytes were obtained from Pluriomics (Leiden, The Netherlands). The cryopreserved cells were recovered in maintained in Pluricyte Medium (Pluriomics, Leiden, The Netherlands) and thereafter cultivated on medium without glucose and/or galactose but comprising fatty acids and carnitine as described below. […]\nAfter two days, an ATP viability assay was performed. ATP values were measured using the Promega Cell titer Glo luminescent cell viability kit according to manufacturers instructions. […] Available ATP is measured via an ATP dependent conversion of Luciferin by a recombinant Luciferase, which produces oxyluciferin and light. The amount of luminescence generated is therefore directly proportional to the amount of ATP in the cells.",
  "data": [
    {"smiles": "COc1cccc2c1C(=O)c1c(O)c3c(c(O)c1C2=O)C[C@@](O)(C(=O)CO)C[C@@H]3O[C@H]1C[C@H](N)[C@H](O)[C@H](C)O1", "note": "[doxorubicin]", "values": [
      {"measurement": "effect on ATP levels", "setting": "cardiomyocytes cultivated in the presence of glucose, various concentrations of doxorubicin, n=6 (FIG. 2)", "value": "shows a clear effect on ATP levels"},
      {"measurement": "mitochondrial toxicity (ATP levels), CM versus CM− medium", "setting": "cells grown in CM (with glucose) compared with CM− (without glucose and galactose, with fatty acids and carnitine) (FIG. 3, lower panel)", "value": "more pronounced in cells cultured in CM−"}
    ]}
  ]
}
